Results from patent US9073876B2, “Flap modulators” (JANSSEN PHARMACEUTICA NV, priority 2013, dated 2015).
pIC50, pKi: −log10 of the molar value.

How the values were obtained:
human FLAP = human FLAP (Homo sapiens (Human), UniProt P20292); experiment: FLAP binding assay (HTRF); details: human FLAP-containing membranes, HTRF format; average of two assay plates, duplicates; read-out: FLAP Binding wild type HTRF Ki
Summary of the method: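 Binding of compounds to FLAP read out as HTRF ratio. Values are the mean of two assay plates, each sample run in duplicate per plate.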

[1] = system: leukotriene pathway in human whole blood (LTB4 levels); experiment: Human whole blood assay (LTB4); assay type: cell-based; details: human whole blood diluted 1:1 in RPMI, stimulated with calcium ionophore A23187; single replicate
Protocol: The ability of the compounds of the present invention to treat a FLAP-mediated disease and/or disorder, or associated symptoms or complications thereof, was determined using the following procedures. Binding assay data represent the average value obtained from two different assay plates, with samples run in duplicate on each plate. Human whole blood assay data represent a single replicate on an assay plate using whole blood from at least one healthy donor.
An in vitro cellular assay was performed using human whole blood collected in heparin-containing tubes, which was used to test the ability of compounds to modulate the leukotriene pathway in human whole blood. The blood was diluted 1:1 in RPMI medium, pre-incubated for 15 min at 37° Celsius with test compounds at various concentrations, and then stimulated with calcium ionophore, A23187 (7 μg/mL), for 30 min at 37° Celsius. The samples were then centrifuged and plasma was removed. The plasma was diluted in assay buffer and LTB4 levels were measured using a commercial kit (Enzo Life Sciences). The concentration of each compound that was required for half-maximal inhibition (modulation) of recombinant enzyme activity (IC50) was calculated by a 4-parameter equation using the program GraphPad Prism (GraphPad software).

Sequence of human FLAP (P20292 whole entry): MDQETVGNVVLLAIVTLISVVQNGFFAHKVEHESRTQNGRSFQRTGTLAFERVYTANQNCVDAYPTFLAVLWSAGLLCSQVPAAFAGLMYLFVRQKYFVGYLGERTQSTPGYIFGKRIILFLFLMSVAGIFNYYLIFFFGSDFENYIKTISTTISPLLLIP

pKi (human FLAP)	pIC50 [1]	SMILES
6.37	6.12	Nc1cnc(-c2ccc(C3CCC3)c(OCC(O)Cn3nncc3N)c2F)cn1 (racemic) [Example 66, racemic 1-(5-Amino-1H-1,2,3-triazol-1-yl)-3-(3-(5-aminopyrazin-2-yl)-6-cyclobutyl-2-fluorophenoxy)propan-2-ol]
5.94	5.94	Nc1cnc(-c2ccc(C3CCC3)c(OCC(O)CN3CCOCC3)c2F)cn1 (racemic) [Example 255, 1-(3-(5-aminopyrazin-2-yl)-6-cyclobutyl-2-fluorophenoxy)-3-morpholinopropan-2-ol]
6.36	6.14	Nc1cnc(-c2ccc(C3CCC3)c(OCC(O)CN3CCS(=O)(=O)CC3)c2F)cn1 (racemic) [Example 256, 4-(3-(3-(5-Aminopyrazin-2-yl)-6-cyclobutyl-2-fluorophenoxy)-2-hydroxypropyl)thiomorpholine 1,1-dioxide]
8.09	6.96	Nc1cnc(-c2ccc(C3CCC3)c(OCC(O)Cn3c(=O)[nH]c4ccccc43)c2F)cn1 (racemic) [Example 311, racemic 1-{3-[3-(5-Aminopyrazin-2-yl)-6-cyclobutyl-2-fluorophenoxy]-2-hydroxypropyl}-1,3-dihydro-2H-benzimidazol-2-one]
7.19	6.27	COc1c(C2CCC2)ccc(-c2cnc(N)cn2)c1F [A, 5-(4-Cyclobutyl-2-fluoro-3-methoxyphenyl)pyrazin-2-amine]
6.45	6.02	Nc1cnc(-c2ccc(C3CCC3)c(O)c2F)cn1 [B, 3-(5-Aminopyrazin-2-yl)-6-cyclobutyl-2-fluorophenol]
6.54	6.23	Nc1cnc(-c2ccc(C3CCC3)c(OCc3ccc(C(F)(F)F)cc3)c2F)cn1 [Example 1, 5-(4-Cyclobutyl-2-fluoro-3-{[4-(trifluoromethyl)benzyl]oxy}phenyl)-pyrazin-2-amine]
6.80	6.28	Nc1cnc(-c2ccc(C3CCC3)c(OCc3cccc(C(F)(F)F)c3)c2F)cn1 [Example 2, 5-(4-Cyclobutyl-2-fluoro-3-{[3-(trifluoromethyl)benzyl]oxy}phenyl)-pyrazin-2-amine]
6.60	6.57	Nc1cnc(-c2ccc(C3CCC3)c(OCc3ccccc3C(F)(F)F)c2F)cn1 [Example 3, 5-(4-Cyclobutyl-2-fluoro-3-{[2-(trifluoromethyl)benzyl]oxy}phenyl)-pyrazin-2-amine]
8.40	6.53	Nc1cnc(-c2ccc(C3CCC3)c(OCc3cccc(C(=O)O)c3)c2F)cn1 [Example 4, 3-{[3-(5-Aminopyrazin-2-yl)-6-cyclobutyl-2-fluorophenoxy]methyl}benzoic acid]
7.96	6.58	Nc1cnc(-c2ccc(C3CCC3)c(OCc3ccc(C(=O)O)cc3)c2F)cn1 [Example 5, 4-{[3-(5-Aminopyrazin-2-yl)-6-cyclobutyl-2-fluorophenoxy]methyl}benzoic acid]
8.15	5.85	CS(=O)(=O)c1ccc(COc2c(C3CCC3)ccc(-c3cnc(N)cn3)c2F)cc1 [Example 7, 5-(4-Cyclobutyl-2-fluoro-3-{[4-(methylsulfonyl)benzyl]oxy}phenyl)-pyrazin-2-amine]
6.60	5.89	Nc1cnc(-c2ccc(C3CCC3)c(OCc3cccnc3)c2F)cn1 [Example 13, 5-[4-Cyclobutyl-2-fluoro-3-(pyridin-3-ylmethoxy)phenyl]pyrazin-2-amine]
6.91	5.64	Nc1cnc(-c2ccc(C3CCC3)c(OCc3ccncc3)c2F)cn1 [Example 14, 5-[4-Cyclobutyl-2-fluoro-3-(pyridin-4-ylmethoxy)phenyl]pyrazin-2-amine]
6.71	5.91	N#Cc1ccc(COc2c(C3CCC3)ccc(-c3cnc(N)cn3)c2F)cc1 [Example 15, 4-{[3-(5-Aminopyrazin-2-yl)-6-cyclobutyl-2-fluorophenoxy]methyl}benzonitrile]
7.01	6.33	N#Cc1cccc(COc2c(C3CCC3)ccc(-c3cnc(N)cn3)c2F)c1 [Example 16, 3-{[3-(5-Aminopyrazin-2-yl)-6-cyclobutyl-2-fluorophenoxy]methyl}benzonitrile]
7.80	6.56	NC(=O)c1cccc(COc2c(C3CCC3)ccc(-c3cnc(N)cn3)c2F)c1 [Example 17, 3-{[3-(5-Aminopyrazin-2-yl)-6-cyclobutyl-2-fluorophenoxy]methyl}benzamide]
6.92	5.93	N#Cc1ccccc1COc1c(C2CCC2)ccc(-c2cnc(N)cn2)c1F [Example 18, 2-{[3-(5-Aminopyrazin-2-yl)-6-cyclobutyl-2-fluorophenoxy]methyl}benzonitrile]

pKi (human FLAP)	pIC50 [1]	SMILES
7.00	6.09	NC(=O)c1ccccc1COc1c(C2CCC2)ccc(-c2cnc(N)cn2)c1F [Example 19, 2-{[3-(5-Aminopyrazin-2-yl)-6-cyclobutyl-2-fluorophenoxy]methyl}benzamide]
8.30	< 5.00	Nc1cnc(-c2ccc(C3CCC3)c(OCc3ccc(-c4nnn[nH]4)cc3)c2F)cn1 [Example 20, 5-(4-Cyclobutyl-2-fluoro-3-{[4-(1H-tetrazol-5-yl)benzyl]oxy}phenyl)pyrazin-2-amine]
8.10	5.38	Nc1cnc(-c2ccc(C3CCC3)c(OCc3cccc(-c4nnn[nH]4)c3)c2F)cn1 [Example 21, 5-(4-Cyclobutyl-2-fluoro-3-{[3-(1H-tetrazol-5-yl)benzyl]oxy}phenyl)pyrazin-2-amine]
8.22	< 5.00	Nc1cnc(-c2ccc(C3CCC3)c(OCc3ccccc3-c3nnn[nH]3)c2F)cn1 [Example 22, 5-(4-Cyclobutyl-2-fluoro-3-{[2-(1H-tetrazol-5-yl)benzyl]oxy}phenyl)pyrazin-2-amine]
8.70	6.44	Nc1cnc(-c2ccc(C3CCC3)c(OCc3ccc(CC(=O)O)cc3)c2F)cn1 [Example 23, (4-{[3-(5-Aminopyrazin-2-yl)-6-cyclobutyl-2-fluorophenoxy]methyl}phenyl)acetic acid]
7.00	< 5.00	Nc1cnc(-c2ccc(C3CCC3)c(OCc3ccccn3)c2F)cn1 [Example 24, 5-[4-Cyclobutyl-2-fluoro-3-(pyridin-2-ylmethoxy)phenyl]pyrazin-2-amine]
7.92	6.24	CN(C)S(=O)(=O)c1ccc(COc2c(C3CCC3)ccc(-c3cnc(N)cn3)c2F)cc1 [Example 25, 4-{[3-(5-Aminopyrazin-2-yl)-6-cyclobutyl-2-fluorophenoxy]methyl}-N,N-dimethylbenzenesulfonamide]
7.70	< 5.00	Nc1cnc(-c2ccc(C3CCC3)c(OCc3ccc(S(N)(=O)=O)cc3)c2F)cn1 [Example 26, 4-{[3-(5-Aminopyrazin-2-yl)-6-cyclobutyl-2-fluoro-phenoxy]methyl}benzenesulfonamide]
8.22	6.09	CNS(=O)(=O)c1ccc(COc2c(C3CCC3)ccc(-c3cnc(N)cn3)c2F)cc1 [Example 27, 4-{[3-(5-Aminopyrazin-2-yl)-6-cyclobutyl-2-fluorophenoxy]methyl}-N-methylbenzenesulfonamide]
6.65	5.97	Nc1cnc(-c2ccc(C3CCC3)c(OCc3cccc(F)c3)c2F)cn1 [Example 29, 5-{4-Cyclobutyl-2-fluoro-3-[(3-fluorobenzyl)oxy]phenyl}pyrazin-2-amine]
6.77	5.71	Nc1cnc(-c2ccc(C3CCC3)c(OCc3c(F)cccc3F)c2F)cn1 [Example 31, 5-{4-Cyclobutyl-3-[(2,6-difluorobenzyl)oxy]-2-fluorophenyl}pyrazin-2-amine]
6.52	5.80	Nc1cnc(-c2ccc(C3CCC3)c(OCc3ccccc3Cl)c2F)cn1 [Example 34, 5-{3-[(2-Chlorobenzyl)oxy]-4-cyclobutyl-2-fluorophenyl}pyrazin-2-amine]
6.76	5.94	Nc1cnc(-c2ccc(C3CCC3)c(OCc3cccc(Cl)c3)c2F)cn1 [Example 35, 5-{3-[(3-Chlorobenzyl)oxy]-4-cyclobutyl-2-fluorophenyl}pyrazin-2-amine]
6.66	5.59	Nc1cnc(-c2ccc(C3CCC3)c(OCc3ccc(Cl)cc3)c2F)cn1 [Example 36, 5-{3-[(4-Chlorobenzyl)oxy]-4-cyclobutyl-2-fluorophenyl}pyrazin-2-amine]
6.60	5.60	Nc1cnc(-c2ccc(C3CCC3)c(OCc3c(Cl)cccc3Cl)c2F)cn1 [Example 37, 5-{4-Cyclobutyl-3-[(2,6-dichlorobenzyl)oxy]-2-fluorophenyl}pyrazin-2-amine]
6.60	5.87	Cc1ccc(COc2c(C3CCC3)ccc(-c3cnc(N)cn3)c2F)cc1C [Example 41, 5-{4-Cyclobutyl-3-[(3,4-dimethylbenzyl)oxy]-2-fluorophenyl}pyrazin-2-amine]
6.71	6.14	Nc1cnc(-c2ccc(C3CCC3)c(OCc3cc(F)ccc3Cl)c2F)cn1 [Example 45, 5-{3-[(2-Chloro-5-fluorobenzyl)oxy]-4-cyclobutyl-2-fluorophenyl}pyrazin-2-amine]
